Results: patent US11045435B2, “Methods for treating ocular diseases” (NATUREWISE BIOTECH & MEDICALS CORPORATION, priority 2016, dated 2021)

Experiments:
ARPE-19 cells [1] = assay: Hypoxia-induced injury in ARPE-19 cells (MTT); type: cell-based, human; details: 72 h
Protocol: (§1) MTT assay was used to measure the viability of ARPE-19 cells and HUVECs. 2×10^5 ARPE-19 cells or 5×10^4 HUVECs were seeded in 96-well plates ([…]) and allowed to grow overnight. Negative control was prepared by adding 100 μl medium without cells. The cells were then treated with fresh medium with COMPOUND I (0.03, 0.1, 0.3, 1, 3 and 10 μg/ml) and/or oxidants (NaIO3, H2O2, t-BHP and NaN3) for 12, 24, or 72 hours (200 μl/well). The vehicle control group was treated with vehicle. 20 μl MTT (5 mg/ml) was added to wells, and incubated for another 4 h. After incubation, the medium was discarded and 100 μl DMSO was added to solubilize formazan produced from MTT by the viable cells. Absorbance was measured at 570 nm using a microplate reader (Bio-Rad Laboratories, Inc., CA). Cells viability was calculated according to the following formula: Viability of cells (%)=(absorbance in tested sample−absorbance in negative control)/(absorbance in vehicle control−absorbance in negative control)×100%.
Cells were allowed to attach overnight, and then exposed to COMPOUND I or vehicle under hypoxic condition for 72 h. Hypoxic conditions (1% O2, 5% CO2 and 94% N2) were maintained by using a temperature and humidity controlled environmental C-chamber by O2 and CO2 controllers (Proox Model 110 and Pro CO2 model 120, Biospherix Ltd., Redfield, N.Y., USA) with N2 and CO2 gas sources.

HUVECs [2] = assay: NaN3-induced injury in HUVECs (MTT); type: cell-based, human; details: 72 h
Protocol: as §1

HUVECs [3] = assay: H2O2-induced injury in HUVECs (MTT); type: cell-based, human; details: 10 μg/ml, 24 h
Protocol: as §1

GFAP mRNA = assay: Gene expression of GFAP in retina, quantitative real-time PCR, streptozotocin-induced diabetic retinopathy; type: in vivo, Sprague-Dawley female rats
Protocol: After a 16-hour fasting, Sprague-Dawley female rats weighing 200-220 g received a single 60 mg/kg intraperitoneal injection of Streptozotocin (STZ; Sigma-Aldrich, St. Louis, Md.) in 10 mM sodium citrate buffer (pH 4.5; Sigma-Aldrich, St. Louis, Md.). Control rats were fasted and received the buffer solution alone. Rats with blood glucose levels higher than 375 mg/dL 7 days after receiving STZ were considered to be diabetic. Diabetic rats were treated with 1% COMPOUND I, 0.5% COMPOUND I or vehicle eye drops 3 time a day for 6 weeks.
After rat were sacrificed as described previously, the eyes were enucleated and bisected, and the retinas were peeled from the eyecups and immediately homogenized in RNA isolation agent (RNeasy®Plus Mini Kit, Qiagen, Valencia, Calif.). The first-strand cDNA was prepared from the mRNA by using the commercial kit in accordance with the manufacturer's protocol (High-capacity reverse transcription kits, AB life technologies, Austin, Tex.). Real-time PCR was performed in 96-well plates using standard protocols with a fluorescent detection dye (SYBRR Green PCR Master Mix, AB life technologies, Austin, Tex.) in a real-time detection system (iCycler. Bio-Rad). All PCR reactions were a final volume of 20 μl comprised of fluorescent dye/PCR mix, final concentration 0.2 μM forward and reverse primers, and 1 ng of cDNA. The PCR cycle parameters were as follows: polymerase activation for 15 minutes at 90° C., 40 cycles of 95° C. for 15 seconds, 60° C. for 30 seconds and 72° C. for 1 minute. The quantity of mRNA was calculated by normalizing the CT of the β-actin housekeeping gene in the same sample, according to the following formula: The average β-actin CT (each multiplex PCR was performed in triplicate) was subtracted from the average target gene CT; the results represented the ΔCT. This ΔCT is specific and can be compared with the ΔCT of a calibration sample. The subtraction of control ΔCT from the ΔCT of the target gene is referred ΔΔCT. The relative quantification of expression of a target gene (in comparison with control) was determined by using 2^−ΔΔCT.

ARPE-19 cells [4] = assay: NaIO3-induced injury in ARPE-19 cells (MTT); type: cell-based, human; details: 10 μg/ml; 72 h
Protocol: as §1

ARPE-19 cells [5] = assay: NaN3-induced injury in ARPE-19 cells (MTT); type: cell-based, human; details: 72 h
Protocol: as §1

Compound: COc1ccc(COc2c(/C=C/C(=O)NO)ccc(OC)c2CC=C(C)C)cc1 [COMPOUND I]
- effect on cells in hypoxic condition (ARPE-19 cells [1]; 0.03 μg/ml to 10 μg/ml except 3 μg/ml): had no effect
- increase of viability in hypoxic condition (ARPE-19 cells [1]; 3 μg/ml, 1% O2): 22%
- enhancement of NaN3-induced injury (HUVECs [2]; 10 µg/ml, 3 mM NaN3): 72%
- effect on NaN3-induced injury (HUVECs [2]; From 0.03 μg/ml): didn't affect
- enhancement of NaN3-induced injury (HUVECs [2]; […], 0.3 mM NaN3): 65%
- enhancement of NaN3-induced injury (HUVECs [2]; […], 1 mM NaN3): 52%
- enhancement of H2O2-induced injury (HUVECs [3]; 200 μM H2O2): 41%
- enhancement of H2O2-induced injury (HUVECs [3]; 400 μM H2O2): 10%
- GFAP gene expression vs diabetic control group, in words (GFAP mRNA; 0.5% and 1%): significantly down-regulated
- mRNA expression of GFAP, DR animals as 100% (GFAP mRNA; 0.5% eye drops tid 6 weeks): 60%
- mRNA expression of GFAP, DR animals as 100% (GFAP mRNA; 1% eye drops tid 6 weeks): 51%
- effect on viability in NaIO3-induced injury (ARPE-19 cells [4]): significantly enhanced the viability
- effect on NaN3-induced injury (ARPE-19 cells [5]): significantly reversed
